Test results reported in patent publication US20010056071A1, “Use of resveratrol for the treatment of exfoliative eczema, acne and psoriasis” (priority 2000, published 2001).

What was measured:
[1] = system: chronic psoriasis; experiment: Multi-center, double blind study of ointments in mild to moderate chronic psoriasis; type: in vivo, patients; settings: for percentage of patients healed or showing marked improvement (treatment effective): ointment twice a day for one month, 1% resveratrol, calcipotriol 50 mg/g, or both, 12 patients per group, control 10%
Excerpt: A prospectic, multi-center, double bind study was effected on patients of both sexes, of age above 18 years, with a clinical diagnosis of mild to moderate chronic psoriasis, with affected areas of at least 100 cm^2, but not above 40% of the total body area. Patients with pustular psoriasis or with psoriasis guttata, those who had received either topical treatment for two weeks before the test or systemic treatment in the 8 weeks before the test, as well as pregnant and nursing women or patients receiving more than 400 IU of vitamin D daily or any other medicament potentially affecting the progress of the disease, were excluded.
Out of 48 patients, 12 were included in the resveratrol-treated group (1% resveratrol ointment), 12 in the control group (ointment with no resveratrol), 12 in a group treated with a Vitamin D derivative (calcipotriol 50 mg/g) and 12 in a group treated with the combination resveratrol/Vitamin D derivative (1% resveratrol/50 mg/g calcipotriol). […] Patients were treated twice a day for one month with the different ointments.
At the end of the treatment, the clinical response was evaluated as “healed”, “marked improvement”, “slight improvement”, “no changes”, “worsening”. Quality life evaluations were carried out before and after the treatment, by using the “psoriasis Disability Index” (PDI) and the “Sickness Impact Profile” (SIP). The PDI questionnaire included 15 questions as follows: daily activities (5 questions), work or school, if applicable, (3 questions), personal relationships, (2 questions), spare time (4 questions), treatment, (1 question). […] The purpose of said questions was to evaluate symptoms and feelings of the patients concerning their psoriasis during the first 4 weeks of treatment.

[2] = system: severe disabling exfoliative eczema; experiment: Clinical study of 1% resveratrol ointment in exfoliative eczema (six-area/six-sign score); type: in vivo, patients
Method: Experiments were carried out on patients (n=20) of both sexes, of age above 18 years, suffering from severe disabling exfoliative eczema unresponsive to the current topical treatments.
All patients were subjected to complete blood count and measurements of renal and hepatic functions prior to treatment. Patients who had been systemically treated two months previously with corticoids, antibiotics, psoralenes and other immunosuppressants or with UV were excluded. Patients were supposed not to use any corticoid topically.
Out of 20 patients, 10 were included in the resveratrol-treated group (1% resveratrol ointment) and 10 in the control group (ointment with no resveratrol). […] Patients were divided in two groups and treated twice a day for six months either with the resveratrol-containing ointment or with the placebo ointment (control group).
The progress of the disease was monitored by using the “six-area/six-sign score” method. The severity of the six signs used for monitoring the disease (erythema, pustules, excoriations, dehydration, scaling of the skin and lichenification), was evaluated on a 0-3 score (none, mean, moderate and severe), in each of the six body areas tested (head, neck, hands, elbows, feet, legs and trunk). The severity of itching and of sleep disorders was evaluated on a 0-3 score (none, mean, moderate and severe).

[3] = system: neutrophils, circulating cells, cells at the lesion site; experiment: General observations during and after topical treatment with resveratrol; type: in vivo
[4] = system: acne vulgaris; experiment: Randomized, double blind study of topical resveratrol (1% cream) in acne vulgaris; type: in vivo, patients; settings: 1% cream daily for 10 weeks
Method: A randomized, double blind study was carried out in order to evaluate the effectiveness of topical administration of resveratrol in the treatment of acne vulgaris. Patients (n=30) of 15 to 19 years were all suffering from II or III degree acne (according to Pillsbury's classification), with multiple inflammatory lesions (20 to 62) and a number of comedos (28 to 120) on face and forehead. Only subjects who had received no systemic treatment with antibiotics for at least 4 weeks and had used no topical medicaments for 2 weeks before treatment were selected. During treatment with resveratrol, no further topical treatment was allowed. The effectiveness of the therapy was evaluated by comparing the conditions of the lesions before and after the treatment, according to an arbitrary score of 0 to 5 (0=worsening; 1=no changes; 2=slight improvement; 3=modest improvement; 4=good improvement; 5=excellent improvement).
Treatment consisted of daily topical administrations of resveratrol (1% cream) or of the carrier only, for 10 weeks in 30 patients suffering from acne vulgaris. The evaluated parameters were: number of acne lesions and comedos, erythema, seborrhoic skin and skin scaling.

[5] = end of six months treatment, 10 treated patients

Row | SMILES | percentage of patients healed or showing marked improvement (treatment effective) [1] | mean of the values concerning the different clinical symptoms (six-area/six-sign score) ([2]; 1% resveratrol ointment twice a day, after the first two weeks of treatment, baseline 57.0 (SEM 1.6, n=10)) | body area affected by eczema ([2]; during treatment, baseline 69% on the average) | number of treated patients showing improvements only concerning skin scaling [2, 5] | number of treated patients with significant improvements of all the considered parameters [2, 5] | mean score for itching (0-3) ([2]; end of the treatment, baseline 2.3) | mean score for sleep disorders (0-3) ([2]; end of the treatment, baseline 2.9) | neutrophils activity, circulating cells, cells at the lesion site ([3]; after topical treatment) | systemic or topical effects during and after the treatment ([3]; topical use) | reduction in the total PDI score ([1]; after treatment, 95% CI 4.4, 8.6, P=0.001, control group 1.7) | cases in which effectiveness was due to the reduction of follicle hyperkeratosis [4] | side effects [4] | treated subjects with significant reduction of erythema, number of acne lesions, comedos and scaling ([4]; control subjects 2%)
1 | C=C1/C(=C\C=C2/CCC[C@]3(C)[C@@H]([C@H](C)/C=C/[C@@H](O)C4CC4)CC[C@@H]23)C[C@@H](O)C[C@@H]1O [Vitamin D derivatives, calcipotriol, reference compound] | 47% |  |  |  |  |  |  |  |  |  |  |  | 
2 | Oc1ccc(/C=C/c2cc(O)cc(O)c2)cc1 [resveratrol, 3,4′,5-trihydroxy-trans-stilbene] | 80% | 21.5 | 27% | two | 8 patients | 0.6 | 1.0 | no changes of neutrophils activity | neither systemic nor topical effects | 6.5 | 95% | neither systemic nor topical side effects | 96%
